Measured values taken from ChEMBL document CHEMBL1155074, “Is quantum mechanics necessary for predicting binding free energy?” (J Med Chem, 2008).
Square brackets hold non-standard residues; d marks the D form. Peptide text beside a SMILES is read from it. * marks the point of attachment. Phe(4-guanidino) = N=C(N)Nc1ccc(C[C@H](N)C(=O)O)cc1; Phe(4-Me) = Cc1ccc(C[C@H](N)C(=O)O)cc1; Phg = N[C@H](C(=O)O)c1ccccc1; Nle = CCCC[C@H](N)C(=O)O; Cbz = O=C(OCc1ccccc1)*; Bz = O=C(c1ccccc1)*; Bn = c1ccc(C*)cc1

Columns and labels:
Protease = Protease (Human immunodeficiency virus 1, UniProt Q9YQ12); experiment: Inhibition of HIV1 protease
Chain of Protease (Q9YQ12 whole entry): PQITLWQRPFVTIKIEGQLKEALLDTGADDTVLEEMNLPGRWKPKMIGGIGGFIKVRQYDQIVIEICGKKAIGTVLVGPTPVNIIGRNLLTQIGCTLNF

[1] = Inhibition of West Nile virus NS3 protease

Row | Compound | Ki (Protease) [nM] | IC50 [1] [µM]
1 | O=C1N(Cc2ccc3ccccc3c2)[C@H](Cc2ccccc2)[C@H](O)[C@@H](O)[C@@H](Cc2ccccc2)N1Cc1ccc2ccccc2c1 | 0.05 | –
2 | CC1(C)S[C@H]([C@H](NC(=O)Cc2ccccc2)C(=O)NCc2ccccc2)N[C@H]1C(=O)N[C@H](Cc1ccccc1)[C@H](O)CC(=O)NCc1nc2ccccc2[nH]1 | 3.2 | –
3 | CCCC[C@H](NCc1ccccc1)C(=O)N[C@@H](CCCCN)C(=O)N[C@@H](CCCNC(=N)N)C(=O)N[C@H](C=O)Cc1ccc(C#N)cc1 | – | 62
4 | CC(C)[C@H](NC(=O)N(C)Cc1ccccn1)C(=O)NC(Cc1ccccc1)[C@H](O)[C@H](O)[C@H](Cc1ccccc1)NC(=O)[C@@H](NC(=O)N(C)Cc1ccccn1)C(C)C (stereo partly specified) | 1100 | –
5 | N=C(N)NCCC[C@@H](C=O)NC(=O)[C@H](CCCNC(=N)N)NC(=O)[C@H](CCCCN)Nc1cccnc1 | – | 1
6 | COC(=O)[C@@H](NC(=O)[C@@H](NC(=O)[C@H](C)N1CCC([C@H](C)NC(=O)[C@H](C)N)=C[C@@H](Cc2ccccc2)C1)C(C)C)C(C)C | 437 | –
7 | CCCC[C@H](NCc1ccccc1)C(=O)N[C@@H](CCCCN)C(=O)N[C@@H](CCCNC(=N)N)C(=O)N[C@H](C=O)Cc1c[nH]c2ccccc12 | – | 10
8 | CC(=O)N[C@@H](CCCCN)C(=O)N[C@@H](CCCNC(=N)N)C(=O)N[C@H](C=O)CCCNC(=N)N (Ac-Lys-Arg-Arg-aldehyde) | – | 0.5
9 | CC(=O)N[C@@H](CCCCN)C(=O)N[C@@H](CCCCN)C(=O)N[C@H](C=O)CCCNC(=N)N (Ac-Lys-Lys-Arg-aldehyde) | – | 0.4
10 | C[C@H](NC(=O)c1ccccc1)C(=O)N[C@@H](CCCCN)C(=O)N[C@@H](CCCNC(=N)N)C(=O)N[C@H](C=O)CCCNC(=N)N (Bz-AKRR-aldehyde) | – | 0.7
11 | N=C(N)NCCC[C@@H](C=O)NC(=O)[C@H](CCCNC(=N)N)NC(=O)c1ccccc1 (Bz-Arg-Arg-aldehyde) | – | 3.9
12 | N=C(N)NCCC[C@H](NC(=O)c1ccccc1)C(=O)N[C@H](C=O)CCCCN (Bz-Arg-Lys-aldehyde) | – | 57.5
13 | N=C(N)NCCC[C@@H](C=O)NC(=O)[C@H](CCCCNC(=O)OCc1ccccc1)NC(=O)c1ccccc1 (Bz-Lys(Cbz)-Arg-aldehyde) | – | 436
14 | N=C(N)NCCC[C@@H](C=O)NC(=O)[C@H](CCCNC(=N)N)NC(=O)[C@H](CCCCN)NC(=O)c1ccccc1 (Bz-Lys-Arg-Arg-aldehyde) | – | 1.5
15 | N=C(N)NCCC[C@H](NC(=O)[C@H](CCCCN)NC(=O)c1ccccc1)C(=O)N[C@H](C=O)Cc1ccc(OCc2ccccc2)cc1 (Bz-Lys-Arg-Tyr(Bn)-aldehyde) | – | 11.8
16 | N=C(N)NCCC[C@H](NC(=O)[C@H](CCCCN)NC(=O)c1ccccc1)C(=O)N[C@H](C=O)Cc1ccc(O)cc1 (Bz-Lys-Arg-Tyr-aldehyde) | – | 14.6
17 | Cc1ccc(C[C@@H](C=O)NC(=O)[C@H](CCCNC(=N)N)NC(=O)[C@H](CCCCN)NC(=O)c2ccccc2)cc1 (Bz-Lys-Arg-[Phe(4-Me)]-aldehyde) | – | 17.7
18 | N=C(N)NCCC[C@@H](C=O)NC(=O)[C@H](CCCCN)NC(=O)c1ccccc1 (Bz-Lys-Arg-aldehyde) | – | 1.4
19 | N=C(N)NCCC[C@@H](C=O)NC(=O)[C@H](CC(N)=O)NC(=O)[C@H](CCCCN)NC(=O)c1ccccc1 (Bz-Lys-Asn-Arg-aldehyde) | – | 71.8
20 | Cc1ccc(C[C@@H](C=O)NC(=O)[C@H](CCCCNC(=O)OCc2ccccc2)NC(=O)[C@H](CCCCN)NC(=O)c2ccccc2)cc1 (Bz-Lys-Lys(Cbz)-[Phe(4-Me)]-aldehyde) | – | 43.3
21 | Cc1ccc(C[C@H](NC(=O)[C@H](CCCCN)NC(=O)c2ccccc2)C(=O)N[C@H](C=O)CCCNC(=N)N)cc1 (Bz-Lys-[Phe(4-Me)]-Arg-aldehyde) | – | 194
22 | Cc1ccc(C[C@@H](C=O)NC(=O)[C@H](Cc2ccc(OCc3ccccc3)cc2)NC(=O)c2ccccc2)cc1 (Bz-Tyr(Bn)-[Phe(4-Me)]-aldehyde) | – | 12.7
23 | CCCC[C@H](NC(=O)c1ccccc1)C(=O)N[C@@H](C)C(=O)N[C@@H](CCCNC(=N)N)C(=O)N[C@H](C=O)CCCNC(=N)N (Bz-[Nle]ARR-aldehyde) | – | 3.8
24 | CCCC[C@H](NC(=O)c1ccccc1)C(=O)N[C@@H](CCCCN)C(=O)N[C@@H](CCCNC(=N)N)C(=O)N[C@H](C=O)CCCNC(=N)N (Bz-[Nle]KRR-aldehyde) | – | 4.1
25 | CC(=O)N[C@H](C(=O)N[C@H](C(=O)N[C@@H](CC(C)C)[C@@H](O)CC(=O)N[C@@H](C)C(=O)N[C@@H](CC(C)C)C(O)CC(=O)O)C(C)C)C(C)C (single isomer, unassigned) [ACETYLPEPSTATIN] | 1100 | –

Next, values leading:

Row | Ki (Protease) [nM] | IC50 [1] [µM] | Compound
26 | – | 1.2 | NCCCC[C@H](NC(=O)[C@H](Cc1ccccc1)NC(=O)c1ccccc1)C(=O)N[C@@H](CCCN=C(N)N)C(=O)N[C@H](C=O)CCCN=C(N)N (Bz-FKRR-aldehyde)
27 | – | 71.1 | N=C(N)NCCC[C@H](NC(=O)[C@H](CCCCN)NC(=O)c1ccccc1)C(=O)N[C@H](C=O)Cc1ccccc1 (Bz-Lys-Arg-Phe-aldehyde)
28 | – | 4.2 | CCCC[C@H](NC(=O)c1ccccc1)C(=O)N[C@@H](Cc1ccccc1)C(=O)N[C@@H](CCCNC(=N)N)C(=O)N[C@H](C=O)CCCNC(=N)N (Bz-[Nle]FRR-aldehyde)
29 | – | 108 | CCCC[C@H](NC(=O)c1ccccc1)C(=O)N[C@@H](CCCCN)C(=O)N[C@@H](Cc1ccccc1)C(=O)N[C@H](C=O)CCCNC(=N)N (Bz-[Nle]KFR-aldehyde)
30 | – | 1.9 | CCCC[C@H](NC(=O)c1ccccc1)C(=O)N[C@@H](CCCCN)C(=O)N[C@@H](CCCCN)C(=O)N[C@H](C=O)CCCNC(=N)N (Bz-[Nle]KKR-aldehyde)
31 | – | 1.7 | CCCC[C@H](NC(=O)c1ccccc1)C(=O)N[C@@H](CCCCN)C(=O)N[C@@H](CCC(N)=O)C(=O)N[C@H](C=O)CCCNC(=N)N (Bz-[Nle]KQR-aldehyde)
32 | – | 110 | CCCC[C@H](NC(=O)c1ccccc1)C(=O)N[C@@H](CCCCN)C(=O)N[C@@H](CCCNC(=N)N)C(=O)N[C@H](C=O)Cc1ccccc1 (Bz-[Nle]KRF-aldehyde)
33 | – | 43.1 | CCCC[C@H](NC(=O)c1ccccc1)C(=O)N[C@@H](CCCCN)C(=O)N[C@@H](CCCNC(=N)N)C(=O)N[C@H](C=O)Cc1cnc[nH]1 (Bz-[Nle]KRH-aldehyde)
34 | – | 57.7 | CCCC[C@H](NC(=O)c1ccccc1)C(=O)N[C@@H](CCCCN)C(=O)N[C@@H](CCCNC(=N)N)C(=O)N[C@H](C=O)CCCCN (Bz-[Nle]KRK-aldehyde)
35 | – | 11.8 | CCCC[C@H](NC(=O)c1ccccc1)C(=O)N[C@@H](CCCCN)C(=O)N[C@@H](CCCNC(=N)N)C(=O)N[C@H](C=O)Cc1ccc(NC(=N)N)cc1 (Bz-[Nle]KR[Phe(4-guanidino)]-aldehyde)
36 | – | 90.9 | CCCC[C@H](NC(=O)c1ccccc1)C(=O)N[C@@H](CCCCN)C(=O)N[C@@H](CCCNC(=N)N)C(=O)N[C@H](C=O)c1ccccc1 (Bz-[Nle]KR[Phg]-aldehyde)
